From patent US10912767B2, “Anthracycline prodrugs and methods of making and using the same” (THE REGENTS OF THE UNIVERSITY OF COLORADO, priority 2015, dated 2021)

Legend:
[1] = Photolysis timecourses, near UV blacklight 350 nm, HPLC; assay type: physicochemical
Source text: In order to investigate the photolysis of the drugs in a system amenable to cell culture use, a custom UV irradiation apparatus was constructed, consisting of 3 small blacklight fluorescent bulbs (Southern New England Ultraviolet Co., λmax=350 nm) set between two ring stands and suspended at a height of 11.5 cm. The bulbs' housing was reflective aluminum so as to direct as much UV irradiation as possible downward toward the plate. Upon installation in sterile cell culture hood, the power of the system was measured at approximately 6-7 mW using a Scientech laser power meter. Prior to experimentation, the hood and irradiation apparatus was sterilized with 254 nm germicidal UV irradiation overnight. Using this setup, 100 μM of 4,5-dimethoxy-2-nitrobenyl alcohol (DMNA), photodoxazolidine R═H, and glucose-PEG-photodoxazoldine were irradiated in individual wells of a 24-well plate. Initially, 50 μL of a DMSO stock was diluted with 950 μL of PBS and aliquots of 50 μL were removed at various times (0-180 min), mixing by pipetting each time. The timepoints were analyzed by HPLC (method 2) and plotted as fractional conversion versus time. […] Therefore, a second experiment was performed in which the PBS was replaced with 1:1 acetonitrile:water. With this system of 5% DMSO/47.5% acetonitrile/47.5% water, no visible precipitation was produced over the course of the reaction.
The measured quantum yield of 0.002 for photodoxazolidine R═H (above) was lower than expected, which raised the possibility that the presence of the anthraquinone ring complex in the prodrugs was inhibiting photocleavage by quenching the activated state. To test whether this, the irradiation kinetics of DMNA (4, 5-dimethoxy-2-nitrobenzyl alcohol) was compared against photodoxazolidine R═H, which contains the DMNA unit as the photoactivating group. Additionally, glucose-PEG-photodoxazoldine was included for comparison; a synthetic precursor to this compound, azido-PEG-photodoxazolidine, is suspected of having a quantum yield of 0.01-0.02, which is 5-10-fold larger than photodoxazolidine. Irradiation was performed in 24-well cell culture dishes using the cell culture irradiation system described above with the soft-glass high-pass filter. […] In both cases, photodoxazolidine was the slowest to produce dox from the irradiation. In line with its quantum yield, glucose-PEG-photodoxazolidine reacted 4-5-fold faster than photodoxazolidine. However, DMNA was by far the fastest to undergo photochemistry in this system, converting to product approximately 30-fold faster than photodoxazolidine.

[2] = Solubility observed in irradiation solvent; assay type: physicochemical
Source text: In order to investigate the photolysis of the drugs in a system amenable to cell culture use, a custom UV irradiation apparatus was constructed, consisting of 3 small blacklight fluorescent bulbs (Southern New England Ultraviolet Co., λmax=350 nm) set between two ring stands and suspended at a height of 11.5 cm. The bulbs' housing was reflective aluminum so as to direct as much UV irradiation as possible downward toward the plate. Upon installation in sterile cell culture hood, the power of the system was measured at approximately 6-7 mW using a Scientech laser power meter. Prior to experimentation, the hood and irradiation apparatus was sterilized with 254 nm germicidal UV irradiation overnight. Using this setup, 100 μM of 4,5-dimethoxy-2-nitrobenyl alcohol (DMNA), photodoxazolidine R═H, and glucose-PEG-photodoxazoldine were irradiated in individual wells of a 24-well plate. Initially, 50 μL of a DMSO stock was diluted with 950 μL of PBS and aliquots of 50 μL were removed at various times (0-180 min), mixing by pipetting each time. The timepoints were analyzed by HPLC (method 2) and plotted as fractional conversion versus time. […]
The measured quantum yield of 0.002 for photodoxazolidine R═H (above) was lower than expected, which raised the possibility that the presence of the anthraquinone ring complex in the prodrugs was inhibiting photocleavage by quenching the activated state. […]

[3] = tested on: MDA-MB-231 breast carcinoma cells; experiment: Tumor cell uptake by flow cytometry; assay type: cell-based, human; settings: 500 nM, 30 min to 4 h, compared against doxorubicin
Description: Uptake of the drugs by the cells was measured by flow cytometry. The cells were incubated with 500 nM photodoxazolidine R═H, azido-PEG-photodoxazolidine, or doxorubicin dissolved in 1:1 PBS:serum-free media for between 30 min and 4 h, after which the drug was removed and the cells washed with cold PBS. Cells were trypsinized to a single-cell suspension, rinsed again in cold PBS, and stored on ice for analysis by flow cytometry, monitoring the presence of the anthraquinone fluorophore (channel FL2). Cell populations were gated for intact cells in the side-scatter/forward-scatter plot and 10,000 gated events were scored for each timepoint. The mean fluorescence of the population was compared to the mean fluorescence of 10,000 gated events for an untreated population and the fold increase over background was plotted versus time of drug incubation.
Using MDA-MB-231 breast carcinoma cells, the cellular uptake of photodoxazolidine and azido-PEG-photodoxazolidine was analyzed by flow cytometry and compared against the uptake of doxorubicin.

COc1cc(COC(=O)N2COC3C(C)OC(OC4CC(O)(C(=O)CO)Cc5c(O)c6c(c(O)c54)C(=O)c4c(OC)cccc4C6=O)CC32)c([N+](=O)[O-])cc1OC (stereo not drawn) [Photodoxazolidine]
k in ACN: H2O, relative rate constant for photocleavage ([1]; 100 μM, 1:1 acetonitrile:water, near UV 350 nm): 0.0069 min⁻¹ | k in PBS, relative rate constant for photocleavage ([1]; 100 μM, PBS, near UV 350 nm): 0.0026 min⁻¹ | k in ACN: H2O, fold over photodoxazolidine ([1]; 1:1 acetonitrile:water): (1.0) | k in PBS, fold over photodoxazolidine ([1]; PBS): (1.0) | solubility in PBS [2]: poor solubility | cellular uptake (cellular fluorescence) [3]: rapid increase in cellular fluorescence
